According to patent publication US20100184189A1, “PROTEIN FOR THE CHEMOENZYMATIC PRODUCTION OF L-THREO-HYDROXYASPARTATE” (priority 2007, published 2010):

Tests used:
AsnO D241N [1] = molecular target: T1, AsnO D241N (Streptomyces coelicolor, UniProt Q9Z4Z5, D241N/M1S); test: Substrate specificity of the mutated protein AsnO D241N, HPLC/MS; assay type: biochemical; parameters: made in house; host or cells: E. coli BL21 (DE3), pQTEV vector; details: amino acid 1.5 mM, 16 h at 16° C., (NH4)2Fe(SO4)2 1 mM, α-ketoglutarate 4 mM, catalase, HEPES pH 7.5
Method: The specificity of AsnO D241N for the conversion of L-Asp in L-threo-3-hydroxyaspartate is examined by incubating this mutated protein during 16 h at 16° C. with the amino acids (1.5 mM) listed in Table 1, the cofactor (NH4)2Fe(SO4)2 (1 mM), the cosubstrate α-ketoglutarate (4 mM) and 20 μg catalase in […] of a 50 mM HEPES buffer (pH 7.5). The catalase is added in order to quench reactive oxygen species and to prevent hereby the autoxidation of the enzyme. Controls are carried out in the absence of AsnO D241N.
The reaction is stopped by the addition of 50-200 μL of a 4% solution (V/V) of nonafluoropentane acid and subsequently the hydroxylation of the amino acid substrate to the respectively corresponding hydroxy amino acid is examined by means of reversed phase HPLC/MS. Column: Hypercarb (Thermo Electron Corporation, pore diameters of 250 Å, particle size of 5 μM, 100% carbon). Mobile phases: A=20 mM aqueous nonafluoropentane acid, B=acetonitrile. Gradient: 0-10% B in 12 min, flow rate 0.2 mL/min at 17.5° C.
The reaction product of the incubation of the respective amino acid with AsnO D241N is carried out by means of highest resolution MS with an API Qstar Pulsar I (Applied Biosystems).

AsnO D241N [2] = molecular target: T1, AsnO D241N; details: AsnO D241N 40 μM, substrate L-Asp 50 μM to 2 mM
Method: For the evaluation of the kinetic parameters at different concentrations of the substrate L-Asp (50 μM to 2 mM), the latter was incubated as described under practical embodiment 3 with AsnO D241N (40 μM), 1.0 mM (NH4)2Fe(SO4)2 as source of the iron cofactor and 1.0 mM α-ketoglutarate (cosubstrate) and the enzyme assay was stopped at different points in time by adding nonafluoropentane acid.
The kinetic parameters of AsnO D241N are subsequently determined by means of a Lineweaver-Burk equation (FIG. 4b).

AsnO D241N [3] = molecular target: T1, AsnO D241N; test: Activity of the AsnO D241N mutant: conversion of L-Asp, HPLC MS; assay type: biochemical; parameters: made in house; host or cells: E. coli BL21 (DE3), pQTEV vector; details: AsnO D241N 40 μM, 1.5 mM L-Asp, 1.0 mM (NH4)2Fe(SO4)2, 1.0 mM α-ketoglutarate, 16 h, 16° C.
Method: In order to evaluate the activity of the AsnO D241N mutant, the purified enzyme
The reaction is monitored by means of HPLC MS, by scanning the masses for L-Asp ([M+H]^+=[…]) and its hydroxylated form ([M+H]^+=150.04 Da). […] (FIG. 3a). In the control reaction, in which no enzyme is added, only L-Asp can be detected (FIG. 3b). Commercially available L-Asp (Bachem) as well as L-threo-3-hydroxyaspartate (Tocris Bioscience) are used as standards for the comparison of the retention times with HPLC.
Column: Hypercarb (Thermo Electron Corporation, pore diameters of 250 Å, particle size of 5 μM, 100% carbon). Mobile phases: A=20 mM aqueous nonafluoropentane acid, B=acetonitrile Gradient: 0-10% B in 12 min, flow rate 0.2 mL 1 min at 17.5° C. • FIG. 3a: negative control, no addition of enzyme (=AsnO D241N) • Only L-Asp is detected. • Retention time: 3.72 min; • Mber=134.045, Mgef=134.048 • FIG. 3b: incubation of L-Asp with AsnO D241N • After 16 h of incubation at 16° C. only • L-threo-3-hydroxyaspartate is detected. • Retention time 3.39 min; • Mber=150.040, Mgef=150.042

wild type AsnO = test: Kinetic parameters of the wild type AsnO for L-Asn (comparison); assay type: biochemical, Streptomyces coelicolor; details: wild type AsnO with L-Asn versus AsnO D241N with L-Asp
glutamate transporters = details: literature statement; cited from earlier work
[4] = substrate: NC(=O)C[C@H](N)C(=O)O; test: Kinetic parameters of the wild type AsnO for L-Asn (comparison); assay type: biochemical, Streptomyces coelicolor; details: other: wild type AsnO, substrate L-Asn

T1 sequence (Q9Z4Z5 other isoform, or with tags, fused parts or gaps D241N): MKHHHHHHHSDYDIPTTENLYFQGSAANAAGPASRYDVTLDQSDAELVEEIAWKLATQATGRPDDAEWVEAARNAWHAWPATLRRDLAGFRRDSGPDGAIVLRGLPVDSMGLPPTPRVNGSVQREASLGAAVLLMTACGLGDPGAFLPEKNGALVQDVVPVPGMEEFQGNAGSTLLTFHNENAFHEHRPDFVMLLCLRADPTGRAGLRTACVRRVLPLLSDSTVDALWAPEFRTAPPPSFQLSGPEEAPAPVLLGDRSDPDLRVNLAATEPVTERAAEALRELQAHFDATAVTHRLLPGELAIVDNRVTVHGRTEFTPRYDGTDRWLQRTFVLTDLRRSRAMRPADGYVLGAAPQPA

Molecule	hydroxylation (AsnO D241N [1])	also measured
N[C@@H](CC(=O)O)C(=O)O [L-Asp, L-aspartate]	yes	Km (AsnO D241N [2]): 457 ± 31 µM; kcat (AsnO D241N [2]): 0.0167 ± 0.0017 s⁻¹; conversion of L-aspartate to L-threo-3-hydroxyaspartate (AsnO D241N [3]): Quantitative conversion; conversion of L-aspartate to L-threo-3-hydroxyaspartate (AsnO D241N [3]; listed as L-aspartate): quantitative conversion
N[C@@H](CCC(=O)O)C(=O)O [L-Glu, L-glutamate]	no	–
NC(=O)C[C@H](N)C(=O)O [L-Asn, L-asparagine]	no	kcat of wild type AsnO relative to AsnO D241N (wild type AsnO): 300 times
CC(C)[C@H](N)C(=O)O [L-Val]	no	–
NC(C(=O)O)C(OCc1ccccc1)C(=O)O [L-TBOA]	–	inhibition of the function of the glutamate transporters (glutamate transporters): also comprises this inhibitor effect
N[C@H](C(=O)O)[C@H](O)C(=O)O [L-threo-hydroxaspartate, L-threo-hydroxyaspartate]	–	inhibition of the function of the glutamate transporters (glutamate transporters): inhibits the function of the glutamate transporters
N[C@H](CC(=O)O)C(=O)O [D-Asp]	no	–
N[C@@H](Cc1ccccc1)C(=O)O [L-Phe]	no	–
CC[C@H](C)[C@H](N)C(=O)O [L-Ile]	no	–
NC(=O)CC[C@H](N)C(=O)O [L-Gln]	no	–
N[C@@H](Cc1c[nH]c2ccccc12)C(=O)O [L-Trp]	no	–
wild type AsnO (Streptomyces coelicolor A3(2)) (protein) MAANAAGPASRYDVTLDQSDAELVEEIAWKLATQATGRPDDAEWVEAARNAWHAWPATLRRDLAGFRRDSGPDGAIVLRGLPVDSMGLPPTPRVNGSVQREASLGAAVLLMTACGLGDPGAFLPEKNGALVQDVVPVPGMEEFQGNAGSTLLTFHNENAFHEHRPDFVMLLCLRADPTGRAGLRTACVRRVLPLLSDSTVDALWAPEFRTAPPPSFQLSGPEEAPAPVLLGDRSDPDLRVDLAATEPVTERAAEALRELQAHFDATAVTHRLLPGELAIVDNRVTVHGRTEFTPRYDGTDRWLQRTFVLTDLRRSRAMRPADGYVLGAAPQPA	–	Km [4]: 478 ± 67 µM; kcat [4]: 4.97 ± 0.317 s⁻¹
